Results reported in patent US5175283A, “Azetidin-2-one derivatives as serine protease inhibitors” (Bristol-Myers Squibb Company, priority 1992, dated 1992).
Several values for one entry are separate records, joined by “and”; a condition that tells them apart may be missing. Identical values can stand only once. Counter-ions that a name gives are not always drawn. Like-named read-outs stand apart in the source and are kept apart here.

What was measured:
human α-thrombin [1] = target: T1, human α-thrombin (Homo sapiens, UniProt P00734); experiment: Enzyme assay for the inhibition of thrombin (s-2238 substrate); type: biochemical; settings: for IC50: 3 min incubation of drug with enzyme, room temperature; for Thrombin k2 /ki (second order rate constant for inactivation of the enzyme): human α-thrombin, s-2238, pH 7.4, room temperature
T1 construct: purified human α-thrombin dissolved in thrombin assay buffer
Protocol: 1. Enzyme Assays for the Inhibition of Thrombin The following reagents were used in these assays: Thrombin assay buffer: 145 mM NaCl, 5 mM KCl, 30 mM N-2-hydroxyethyl piperazine-N'-2-ethanesulfonic acid, pH 7.4, 1 mg/ml polyethylene glycol (PEG-8000). 3 mM D-Phe-Pip-Arg-p-nitroanilide (s-2238) in H2 O. 3 U/ml purified human α-thrombin dissolved in thrombin assay buffer. Inhibitors to be tested were dissolved in H2 O, methanol, or DMSO just prior to use. Assay Procedure To each well in a 96-well microtiter plate, 270 μl of assay buffer was added. Human α-thrombin (10 μl of 3 U/ml) was added, then 10 μl of inhibitor were added and mixed. The samples were incubated at room temperature for a defined period of time (3 min for initial IC50 determinations). The enzymic reaction was started with 10 μl of 3 mM s-2238 substrate and continued at room temperature. The change in optical density was measured at 405 nm. A kinetic microplate reader (Molecular Devices Corporation Vmax) was used to measure the change in optical density over time. Results are reported in Table 1 as IC50 values, i.e., the drug concentration in mole/liter which caused 50% inhibition of the enzyme activity (after incubation of the drug with the enzyme for 3 min). Alternatively, results are also reported in Table 1 expressed as k2 /ki which is the second order rate constant in per mole per minute for inactivation time of the enzyme [Kitz, et al., J. Biol. Chem., 237, 3245 (1962)].

[2] = target: T2, bovine pancreatic trypsin (Bos taurus, UniProt P00760); experiment: Enzyme assay for the inhibition of trypsin (Z-Val-Gly-Arg-pNA substrate); type: biochemical
T2 construct: purified bovine pancreatic trypsin dissolved in trypsin assay buffer
T2 sequence (P00760 24-246): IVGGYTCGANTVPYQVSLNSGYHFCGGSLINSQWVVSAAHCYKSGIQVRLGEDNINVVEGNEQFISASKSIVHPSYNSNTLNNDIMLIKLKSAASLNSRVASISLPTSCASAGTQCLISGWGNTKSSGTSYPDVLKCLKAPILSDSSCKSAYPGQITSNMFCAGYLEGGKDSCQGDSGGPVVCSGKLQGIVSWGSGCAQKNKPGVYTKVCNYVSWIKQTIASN
Protocol: 2. Enzyme Assays for the Inhibition of Trypsin
(§1) The following reagents were used in these assays:
Trypsin assay buffer: 2 mM CaCl2, 50 mM Tris/Cl pH 8.0.
3 mM Z-Val-Gly-Arg-pNA (Chromzyme TRy) dissolved in H2 O.
6 μg/ml of purified bovine pancreatic trypsin dissolved in trypsin assay buffer.
Inhibitors to be tested were dissolved in H2 O, methanol or DMSO just prior to use.
To each well in a 96-well microtiter plate, 270 μl of assay buffer was added. Bovine trypsin (10 μl of 6 μg/ml) was added. Inhibitor (10 μl ) was added, mixed, and then incubated at room temperature for 3 min. The enzymic reaction was started with 10 μl of 3 mM Z-Val-Gly-Arg-pNA substrate. The change in optical density was measured at 405 nm at room temperature. A kinetic microplate reader (Molecular Devices Corporation Vmax) was used to measure the change in optical density over time.
Results are reported in Table 1 as IC50 values, i.e., the drug concentration in mole/liter which caused 50% inhibition of the enzyme activity (after incubation of the drug with the enzyme for 3 min).

human α-thrombin [3] = target: T1, human α-thrombin; experiment: Concentration required for doubling thrombin clotting time in human plasma; type: biochemical; settings: human citrated plasma, 10 U/ml human thrombin; read-out: ED50, drug concentration required to double clotting time
Protocol: Procedure for Determining the Concentration Required for Doubling Thrombin Clotting Time--Clotting Time Assays The following reagents were used in these assays: Owren's Veronal Buffer: 125 mM NaCl, 28.4 mM sodium barbital, pH 7.35. Human citrated plasma obtained from human volunteers or citrated plasma obtained from IP-dosed animals (prepared as described below). 10 NIH Units/ml human α-thrombin in thrombin buffer for use with human plasma. […] The blood was centrifuged at […] (480×g) for 15 min at room temperature (using a Sorvall RT 6000B centrifuge). The plasma was removed, pooled, and aliquoted into small tubes which were stored frozen for later use. Clotting Time Measurement Clotting times were determined by pipetting 0.1 ml of Owren's buffer (pre-warmed 37° C.) and 0.1 ml of human or rat plasma into yellow sample cuvettes. For studies with human plasma 10 U/ml human thrombin (10 ml) was placed in the reservoir assembly station of the MLA 700. (Medical Laboratory Automation, Electra 700 Reservoir Assembly). For rat studies, the human thrombin concentration was 25 U/ml. The cuvettes were vortexed and then placed on the MLA 700 sample wheel. The coagulation timer (MLA 700) automatically dispenses 0.1 ml human thrombin into the sample in each cuvette. Detection of the fibrin clot was determined optically by the MLA 700. Studies were performed to determine the concentration of drug which caused a doubling of the clotting time in human plasma. From standard curves of thrombin activity added to the sample versus the clotting time, the concentration of drug which caused a doubling of the thrombin clotting time corresponded to inhibition of approximately 1/2 of the added thrombin clotting activity. Results are reported in Table 1 as ED50 values, i.e., the drug concentration required to double clotting time.

[4] = tested on: Thrombin Induced Clotting Time; experiment: Thrombin induced clotting time ex vivo in plasma of i.p. dosed rats; settings: rat, 50 mg/kg i.p.; for Thrombin Induced Clotting Time (1:4 Control Plasma): plasma diluted 1:4 with control plasma; for Thrombin Induced Clotting Time, terminated samples / Thrombin Induced Clotting Time: undiluted plasma, per animal
Protocol: Procedure for Determining the Concentration Required for Doubling Thrombin Clotting Time--Clotting Time Assays
as §1
Owren's Veronal Buffer: 125 mM NaCl, 28.4 mM sodium barbital, pH 7.35.
Human citrated plasma obtained from human volunteers or citrated plasma obtained from IP-dosed animals (prepared as described below).
25 NIH Units/ml human α-thrombin in thrombin buffer for use with rat plasma.
Test compound was prepared just prior to dosing. Routinely the drugs are dissolved in water. Animals were dosed by i.p. injection.
After the appropriate time period, the animals were ether-anesthetized, and blood was drawn by cardiac puncture using 333 μl of 3.8% sodium citrate per 3 ml blood. After all of the samples were obtained, the tubes were centrifuged at 1,500 rpm for 15 min as described for the human blood samples.
Clotting Time Measurement
Clotting times were determined by pipetting 0.1 ml of Owren's buffer (pre-warmed 37° C.) and 0.1 ml of human or rat plasma into yellow sample cuvettes. For studies with human plasma 10 U/ml human thrombin (10 ml) was placed in the reservoir assembly station of the MLA 700. (Medical Laboratory Automation, Electra 700 Reservoir Assembly). For rat studies, the human thrombin concentration was 25 U/ml. The cuvettes were vortexed and then placed on the MLA 700 sample wheel. The coagulation timer (MLA 700) automatically dispenses 0.1 ml human thrombin into the sample in each cuvette. Detection of the fibrin clot was determined optically by the MLA 700.
In separate studies, two compounds, Compound XIX and Compound XI, were dosed 50 mg/kg I.P. to three rats in each study group. […] "Term" indicates "terminated sample" where a clot was unable to form after approximately 99 seconds. When this occurred, the animal plasma was diluted 1: 1 with control rat plasma and the sample tested again. If need, the animal plasma was diluted 1:4 and tested again.

[5] = 3 min incubation of drug with enzyme, room temperature, pH 8.0, read-out: Trypsin IC50

Row | SMILES | IC50 (human α-thrombin [1]) | Thrombin k2 /ki (second order rate constant for inactivation of the enzyme) (human α-thrombin [1]) | IC50 [2, 5] | IC (2-fold clotting time) (human α-thrombin [3]) | other results
1 | COC(=O)[C@H]1[C@H](CCCNC(=N)N)C(=O)N1S(=O)(=O)c1ccc(C)cc1.Cl (relative stereo) [I, trans-4-Methoxycarbonyl-3-(3-guanidinopropyl)-1-p-toluenesulfonyl-2-azetidinone hydrochloride salt] | 2 to 9 nM | 1.2 × 10^8 m^-1 min^-1 | 8 nM | 65 µM | 
2 | COC(=O)[C@H]1[C@H](CCCNC(=N)N)C(=O)N1C(=O)Nc1ccccc1 (relative stereo) [V, trans-4-Methoxycarbonyl-3-(3-quanidinopropyl)-1-phenylaminocarbonyl-2-azetidinone hydrochloride salt] | 1700 nM | 8.3 × 10^4 m^-1 min^-1 | 5 nM | 30 µM | 
3 | COC(=O)[C@H]1[C@H](CCCNC(=N)N)C(=O)N1S(=O)(=O)c1cccc2c(N(C)C)cccc12 (relative stereo) [III, trans-4-Methoxycarbonyl-3-(3-guanidinopropyl)-1-[(5-dimethylamino)-1-naphthalenesulfonyl]-2-azetidinone hydrochloride salt] | 16 nM | 2.1 × 10^7 m^-1 min^-1 | 720 nM | 50 µM | 
4 | CC(=O)N1C(=O)[C@@H](CCCNC(=N)N)[C@@H]1C(=O)N1CCCCC1 (relative stereo) [Compound XI, trans-4-(1-Piperidinocarbonyl)-3-guanidinooropyl-1-acetyl-2azetidinone hydrochloride salt] | 90 nM | 4.2 × 10^5 m^-1 min^-1 | 9 nM | 0.5 µM | Thrombin Induced Clotting Time (1:1 Control Plasma), terminated samples ([4]; 0.5 hr. post dose, plasma diluted 1:1 with control rat plasma): term. ("terminated sample" where a clot was unable to form after approximately 99 seconds); Thrombin Induced Clotting Time (1:4 Control Plasma) ([4]; 0.5 hr. post dose, hydrochloride salt, 50 mg/kg, in s): 18.0 and 17.7 and 32.4; Thrombin Induced Clotting Time, terminated samples ([4]; 0.5 hr. post dose): term. ("terminated sample" where a clot was unable to form after approximately 99 seconds); Thrombin Induced Clotting Time (1:1 Control Plasma) ([4]; 2 hr. post dose, plasma diluted 1:1 with control rat plasma, in s): 45.7; Thrombin Induced Clotting Time (1:4 Control Plasma) ([4]; 2 hr. post dose, in s): 14.0; Thrombin Induced Clotting Time, terminated samples ([4]; 2 hr. post dose): term. ("terminated sample" where a clot was unable to form after approximately 99 seconds); Thrombin Induced Clotting Time ([4]; 2 hr. post dose, hydrochloride salt, 50 mg/kg): 17.2 s and 14.7 s; Thrombin Induced Clotting Time ([4]; 5 hr. post dose, hydrochloride salt, 50 mg/kg): 13.1 s and 11.4 s and 11.5 s; Clotting time ex vivo, result in words ([4]; three rats per group): prolonged clotting time
5 | CN(C)c1cccc2c(S(=O)(=O)N3C(=O)[C@@H](CCCNC(=N)N)[C@@H]3C(=O)N3CCCCC3)cccc12 (relative stereo) [XII, trans-4-(1-Piperidinocarbonyl)-3-guanidinooropyl-1-[(5-dimethylamino)-1-naphthalenesulfonyl]-2-azetidinone hydrochloride salt] | 10 nM | 2.8 × 10^6 m^-1 min^-1 | 14 nM | 30 µM | 
6 | CC(=O)N1C(=O)[C@@H](CCCNC(=N)N)[C@@H]1S(=O)(=O)c1ccccc1 (relative stereo) [VI, trans-4-Phenylsulfonyl-3-guanidinopropyl-1-acetyl-2-azetidine hydrochloride salt] | 3.2 nM | 3.0 × 10^6 m^-1 min^-1 | 750 nM | 15 µM | 

Now from value to compound, other results behind:

Row | IC50 (human α-thrombin [1]) | Thrombin k2 /ki (second order rate constant for inactivation of the enzyme) (human α-thrombin [1]) | IC50 [2, 5] | IC (2-fold clotting time) (human α-thrombin [3]) | SMILES | other results
7 | 12 nM | 4.2 × 10^7 m^-1 min^-1 |  | 0.34 µM | CC(=O)OC1C(CCCNC(=N)N)C(=O)N1C(C)=O (stereo not drawn) [XX, 4-Acetyloxy-3-quanidinopropyl-1-acetyl-2-azetidinone hydrochloride salt] | IC50 [2]: 12 nM
8 | 390 nM |  | 12 nM | 12 µM | CC(=O)N1C(=O)[C@@H](CCCNC(=N)N)[C@@H]1C(=O)O (relative stereo) [XIV, trans-4-Carboxy-3-quanidinopropyl-1-acetyl-2-azetidinone hydrochloride salt] | 
9 | 2 nM | 1.9 × 10^7 m^-1 min^-1 | 40 nM | 1.25 µM | COC(=O)[C@H]1[C@H](CCCNC(=N)N)C(=O)N1C(C)=O (relative stereo) [II, trans-4-Methoxycarbonyl-3-[3-quanidinopropyl)-1-acetyl-2-azetidinone hydrochloride salt] | 
10 | 12.5 nM | 5.6 × 10^6 m^-1 min^-1 | 36 nM | 0.75 µM | CCS[C@H]1[C@H](CCCNC(=N)N)C(=O)N1C(C)=O (relative stereo) [VII, trans-4-Ethylthio-3-quanidinopropyl-1-acetyl-2-azetidinone hydrochloride salt] | 
